Experiment [1] addresses PDE4B (aa 152-484, Uniprot ID Q07343) (Homo sapiens (Human), UniProt Q07343). In words: PDE4 SPA assay (scintillation proximity assay). It is filed as biochemical. To be noted: read-out: PDE4B2 IC50. As to the method: Phosphodiesterase (PDE) activity is determined by measuring the effect of a test agent on the activity of the PDE4B enzyme in a scintillation proximity assay (SPA). At the time of assay, approximately 30 μL of PDE4B (aa 152-484, Uniprot ID Q07343) in 50 mM Tris pH 7.5, 1.3 mM MgC2, 0.004% Brij 35 is added to a 384 well white clear bottom polystyrene plate (Corning) containing 1 μL of varying concentrations of test compound. After −10 minutes at room temperature (RT; 21° C.), the assay is initiated by the addition of 20 μL of a mixture of ^3H-labeled (adenosine 3′, 5′-cyclic phosphate, ammonium salt, [2,8-^3H]; Perkin Elmer) and unlabeled cAMP. The final assay conditions are approximately 81.6 pM PDE4B in 50 mM Tris pH 7.5, 1.3 mM MgCl2, 0.004% Brij 35, 1 μM ^3H-labeled/unlabeled cAMP (1425 dpm/pmol) and the indicated final concentration of test compound (approximately 10 μM to […] by 4-fold dilution). The final concentration of DMSO in the assay is approximately 2.0%. After 30 minutes at RT, the assay is terminated by the addition of approximately 20 μL of an aqueous solution of PDE YSI SPA beads (8 mg/mL in water; Perkin Elmer). The beads are allowed to settle for at least 2 hours and the plate is then counted on a MicroBeta2 (Perkin Elmer). The concentrations and resulting effect values for the tested compound are plotted and the concentration of compound required for 50% effect (IC50) is determined with a four-parameter logistic dose response equation (E-WorkBook, ID Business Solutions Ltd.) and shown in Table 17.
A general note: SPA uses beads or plates that emit light when radiolabelled molecules are held near them.

Another experiment relates to IL-4. In words: Cytokine assay: IL-4 release from PHA-L stimulated human PBMCs. To be noted: read-out: IL4 IC50. Type of experiment: cell-based. Put shortly: (§1)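 IC50 values came from four-parameter logistic fits of supernatant cytokine, which was quantified by HTRF. Mitogen stimulation used PHA-L at a final 3.5 μg/mL on about 250,000 thawed human PBMCs per well, in serum-containing RPMI medium with 0.25% DMSO, for 48 h.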

The next experiment has as its system IL-13. In words: Cytokine assay: IL-13 release from PHA-L stimulated human PBMCs. It is filed as cell-based. Particulars: read-out: IL13 IC50. Put shortly: as §1
A further experiment relates to IFNγ. Description: Cytokine assay: IFNγ release from PHA-L stimulated human PBMCs. It is filed as cell-based. Put shortly: as §1

SMILES strings stand for the structures. Read-outs that look alike come from different tables or passages of the source.

PDE4B (aa 152-484, Uniprot ID Q07343), sequence (Q07343 324-656): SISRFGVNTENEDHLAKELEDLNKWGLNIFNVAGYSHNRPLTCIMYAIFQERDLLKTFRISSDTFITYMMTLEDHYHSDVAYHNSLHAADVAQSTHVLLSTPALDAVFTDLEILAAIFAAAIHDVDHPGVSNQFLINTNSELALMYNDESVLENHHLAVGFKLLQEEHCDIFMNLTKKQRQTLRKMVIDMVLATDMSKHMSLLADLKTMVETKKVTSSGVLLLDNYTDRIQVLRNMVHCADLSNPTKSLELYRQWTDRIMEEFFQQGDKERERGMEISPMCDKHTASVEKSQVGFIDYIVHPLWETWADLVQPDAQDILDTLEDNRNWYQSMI

Regarding `CCOc1cc(-c2cncc(C3COB(O)C3)c2C(F)F)ccc1OC` (single isomer, unassigned) [Example 139, 4-(4-(difluoromethyl)-5-(3-ethoxy-4-methoxyphenyl)pyridin-3-yl)-1,2-oxaborolan-2-ol], the IC50 (usually the concentration that inhibits the measured activity by half) in experiment [1] is 0.25 nM; with IL-4 it was 0.78 nM; in the experiment with IL-13, 788 nM; in the experiment with IFNγ, 0.4 nM.

Turning to `CCOc1cc(-c2cncc(C3COB(O)C3)c2C(F)F)ccc1OC` (single isomer, unassigned) [Example 140, 4-(4-(difluoromethyl)-5-(3-ethoxy-4-methoxyphenyl)pyridin-3-yl)-1,2-oxaborolan-2-ol], the IC50 in experiment [1] was 2.7 nM; in the experiment with IL-4 it was 3.47 nM; with IL-13 it was 3450 nM; with IFNγ it was 3.2 nM.

For the molecule `CCOc1cc(-c2cncc(C3COB(O)C3)c2C)c(F)cc1OC` (single isomer, unassigned) [Example 142, 4-(5-(5-ethoxy-2-fluoro-4-methoxyphenyl)-4-methylpyridin-3-yl)-1,2-oxaborolan-2-ol], the IC50 in experiment [1] turned out to be 2.53 nM; in the experiment with IL-4 (Homo sapiens, PBMC) it was 4.5 nM; in the experiment with IL-13 (Homo sapiens, PBMC), 1040 nM; in the experiment on IFNγ (Homo sapiens, PBMC) it was 2.04 nM.

`CCOc1cc(-c2cncc(C3COB(O)C3)c2C)c(F)cc1OC` (single isomer, unassigned) [Example 143, 4-(5-(5-ethoxy-2-fluoro-4-methoxyphenyl)-4-methylpyridin-3-yl)-1,2-oxaborolan-2-ol]: the IC50 in experiment [1] turned out to be 2.71 nM; with IL-4, 4.11 nM; in the experiment on IL-13, 1160 nM; in the experiment with IFNγ, 3.68 nM.

In the case of `CCCOc1cccc(-c2cncc(C3COB(O)C3)c2)c1` (single isomer, unassigned) [Example 146, 4-(5-(3-propoxyphenyl)pyridin-3-yl)-1,2-oxaborolan-2-ol], the IC50 amounted to 1.21 nM in experiment [1]; 24.4 nM with IL-4 (Homo sapiens, PBMC); 757 nM with IL-13 (Homo sapiens, PBMC); 23.8 nM in the experiment on IFNγ (Homo sapiens, PBMC).

As for `CCOc1c(OC)ccc(-c2cncc(C3COB(O)C3)c2)c1C(F)F` (single isomer, unassigned; (-)) [Example 10, (−) 4-(5-(2-(difluoromethyl)-3-ethoxy-4-methoxyphenyl)pyridin-3-yl)-1,2-oxaborolan-2-ol], the IC50 in experiment [1] was determined as 6.92 nM; with IL-4 it was 2.39 nM; with IL-13, 438 nM; with IFNγ, 1.62 nM.

Take `CCOc1ccc(-c2cncc(C3COB(O)C3)c2)cc1OC` (single isomer, unassigned; enantiomer2) [Example 188, 4-(5-(4-ethoxy-3-methoxyphenyl)pyridin-3-yl)-1,2-oxaborolan-2-ol, enantiomer2]: the IC50 in experiment [1] is 12.5 nM; in the experiment with IL-4 (Homo sapiens, PBMC), 135 nM; in the experiment on IL-13 (Homo sapiens, PBMC), 1530 nM; in the experiment with IFNγ (Homo sapiens, PBMC) it was 12.2 nM.

On to `CCOc1c(OC)cc(F)c(-c2cncc(C3COB(O)C3)c2)c1F` (single isomer, unassigned; enantiomer 1) [Example 164, (−) 4-(5-(3-ethoxy-2,6-difluoro-4-methoxyphenyl)pyridin-3-yl)-1,2-oxaborolan-2-ol, enantiomer 1], for which the IC50 in experiment [1] was 5.58 nM; in the experiment with IL-4 (Homo sapiens, PBMC), 41.1 nM; with IL-13 (Homo sapiens, PBMC), 986 nM; with IFNγ (Homo sapiens, PBMC), 7.87 nM.

As to `CCCOc1c(OC)ccc(-c2cncc(C3COB(O)C3)c2)c1OC` (single isomer, unassigned; enantiomer 1) [Example 168, (−) 4-(5-(2,4-dimethoxy-3-propoxphenyl)pyridin-3-yl)-1,2-oxaborolan-2-ol, enantiomer 1], the IC50 was 0.88 nM in experiment [1]; 1.17 nM with IL-4 (Homo sapiens, PBMC); 1260 nM with IL-13 (Homo sapiens, PBMC); 0.64 nM in the experiment on IFNγ (Homo sapiens, PBMC).

On to `COc1ccc(-c2cncc(C3COB(O)C3)c2)cc1OC1CCSCC1` (single isomer, unassigned; enantiomer 1) [Example 170, 4-(5-(4-methoxy-3-((tetrahydro-2H-thiopyran-4-yl)oxy)phenyl)pyridin-3-yl)-1,2-oxaborolan-2-ol, enantiomer 1], for which the IC50 in experiment [1] worked out at 3.78 nM; in the experiment on IL-4 (Homo sapiens, PBMC), 48.5 nM; with IL-13 (Homo sapiens, PBMC), 1070 nM; in the experiment on IFNγ (Homo sapiens, PBMC), 2.83 nM.

As to `CCCOc1cc(-c2cncc(C3COB(O)C3)c2)ncc1OC` (single isomer, unassigned; enantiomer 1) [Example 179, 4-(5-methoxy-4-propoxy-[2,3′-bipyridin]-5-yl)-1,2-oxaborolan-2-ol, enantiomer 1], the IC50 was 0.98 nM in experiment [1]; 0.72 nM in the experiment with IL-4 (Homo sapiens, PBMC); 2730 nM with IL-13 (Homo sapiens, PBMC); 0.74 nM in the experiment with IFNγ (Homo sapiens, PBMC).

As to `CCCOc1cc(-c2cc(C3COB(O)C3)cc(CO)n2)ccc1OC` (single isomer, unassigned; enantiomer 1) [Example 180, 4-(2-(hydroxymethyl)-6-(4-methoxy-3-propoxyphenyl)pyridin-4-yl)-1,2-oxaborolan-2-ol, enantiomer 1], the concentration for half-maximal inhibition (IC50) in experiment [1] worked out at 3.01 nM; in the experiment with IL-4 (Homo sapiens, PBMC) it was 6.33 nM; with IL-13 (Homo sapiens, PBMC), 1290 nM; with IFNγ (Homo sapiens, PBMC), 6.65 nM.

Turning to `COc1ccc(-c2cncc(C3COB(O)C3)c2)cc1OC1CC1` (single isomer, unassigned; enantiomer 1) [Example 193, 4-(5-(3-cyclopropoxy-4-methoxyphenyl)pyridin-3-yl)-1,2-oxaborolan-2-ol, enantiomer 1], the IC50 came out at 0.63 nM in experiment [1], 73.1 nM in the experiment with IL-4, 1530 nM with IL-13 and 2.16 nM in the experiment with IFNγ.

On to `CCOc1cc(-c2nc(C3COB(O)C3)cs2)ccc1OC` (single isomer, unassigned; enantiomer 1) [Example 194, (−) 4-(2-(3-ethoxy-4-methoxyphenyl)thiazol-4-yl)-1,2-oxaborolan-2-ol, enantiomer 1], for which the IC50 was 3.63 nM in experiment [1]; 2.85 nM in the experiment with IL-4 (Homo sapiens, PBMC); 1540 nM in the experiment with IL-13 (Homo sapiens, PBMC); 14.7 nM in the experiment on IFNγ (Homo sapiens, PBMC).

Take `CCCOc1cc(-c2nc(OCCO)cc(C3COB(O)C3)n2)ccc1OC` (single isomer, unassigned; enantiomer 1) [Example 196, (−) 4-(6-(2-hydroxyethoxy)-2-(4-methoxy-3-propoxyphenyl)pyrimidin-4-yl)-1,2-oxaborolan-2-ol, enantiomer 1]: the IC50 in experiment [1] was 0.34 nM; with IL-4 (Homo sapiens, PBMC) it was 0.29 nM; in the experiment with IL-13 (Homo sapiens, PBMC) it was 1540 nM; with IFNγ (Homo sapiens, PBMC), 0.81 nM.

`CCOc1cc(-c2cccc(C3COB(O)C3)n2)ccc1SC` (single isomer, unassigned; enantiomer 1) [Example 204, 4-(6-(3-ethoxy-4-(methylthio)phenyl)pyridin-2-yl)-1,2-oxaborolan-2-ol, enantiomer 1]: the IC50 in experiment [1] came to 6.07 nM; in the experiment on IL-4 (Homo sapiens, PBMC) it was 22.7 nM; with IL-13 (Homo sapiens, PBMC), 1710 nM; in the experiment with IFNγ (Homo sapiens, PBMC) it was 21.8 nM.

Turning to `CCOc1cc(-c2c(C)ncc(C3COB(O)C3)c2C)ccc1OC` (single isomer, unassigned; enantiomer 1) [Example 205, (+) 4-(5-(3-ethoxy-4-methoxyphenyl)-4,6-dimethylpyridin-3-yl)-1,2-oxaborolan-2-ol, enantiomer 1], the IC50 came out at 0.52 nM in experiment [1]; 1.06 nM in the experiment on IL-4 (Homo sapiens, PBMC); 1770 nM in the experiment on IL-13 (Homo sapiens, PBMC); 1.09 nM with IFNγ (Homo sapiens, PBMC).

`CCCOc1c(OC)ccc(-c2cncc(C3COB(O)C3)n2)c1F` (single isomer, unassigned; enantiomer 1) [Example 216, 4-(6-(2-fluoro-4-methoxy-3-propoxyphenyl)pyrazin-2-yl)-1,2-oxaborolan-2-ol, enantiomer 1]: the IC50 in experiment [1] came to 4.05 nM; in the experiment on IL-4 (Homo sapiens, PBMC), 19.6 nM; in the experiment with IL-13 (Homo sapiens, PBMC), 2860 nM; in the experiment on IFNγ (Homo sapiens, PBMC), 1.94 nM.

With `CCCOc1cc(-c2cc(C3COB(O)C3)cnc2C)cnc1OC` (single isomer, unassigned; enantiomer 1) [Example 219, (−) 4-(6′-methoxy-2-methyl-5′-propoxy-[3,3′-bipyridin]-5-yl)-1,2-oxaborolan-2-ol, enantiomer 1], the IC50 in experiment [1] came out at 0.82 nM; in the experiment with IL-4 (Homo sapiens, PBMC), 4.1 nM; with IL-13 (Homo sapiens, PBMC), 2130 nM; in the experiment on IFNγ (Homo sapiens, PBMC), 1.67 nM.

Take `CCOc1cc(C2COB(O)C2)nc(-c2ccc(OC)c(OCC)c2)n1` (single isomer, unassigned; enantiomer 1) [Example 223, 4-(6-ethoxy-2-(3-ethoxy-4-methoxyphenyl)pyrimidin-4-yl)-1,2-oxaborolan-2-ol, enantiomer 1]: the half-maximal inhibitory concentration (IC50) in experiment [1] came to 6.67 nM; in the experiment with IL-4 (Homo sapiens, PBMC), 30.9 nM; with IL-13 (Homo sapiens, PBMC) it was 2690 nM; in the experiment with IFNγ (Homo sapiens, PBMC), 22.5 nM.

These data come from patent US11559538B2, “Substituted 1,2-oxaborolan-2-ols as PDE4 inhibitors” (Pfizer Inc., priority 2018, dated 2023).
